Laboratory results from patent publication US7919517B2, “Indazole derivatives” (Kyowa Hakko Kirin Co., Ltd., priority 2003, dated 2011).
Counter-ions that a name gives are not always drawn.

Columns and labels:
Type in all cases: cell-based
[1] = test system: human acute myeloid leukemia cell line MV-4-11; assay: Cytostatic activity on leukemia cell line MV-4-11 (WST-1); conditions: Homo sapiens, MV4-11; 10 μmol/L, 72 hours, MV-4-11 cells; read-out: cytostatic rate MV-4-11 (%) (10 μmol/L)
Method in brief: (§1)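 Cells in RPMI 1640/10% FBS were pre-cultured 4 h, then exposed to test compound at 10 μmol/L (0.1% DMSO) for 72 h at 37 °C. WST-1 read at 450 nm (690 nm reference); cytostatic rate = 100 − growth relative to DMSO control (100%) and medium blank (0%).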

[2] = test system: human acute myeloid leukemia cell line ML-1; assay: Cytostatic activity on leukemia cell line ML-1 (WST-1); conditions: Homo sapiens, ML1; 10 μmol/L, 72 hours, ML-1 cells; read-out: cytostatic rate ML-1 (%) (10 μmol/L)
Method in brief: as §1

[3] = test system: human chronic myeloid leukemia cell line K562; assay: Cytostatic activity on leukemia cell line K562 (WST-1); conditions: Homo sapiens; 10 μmol/L, 72 hours, K562 cells; read-out: cytostatic rate K562 (%) (10 μmol/L)
Method in brief: as §1

[4] = test system: human colon cancer cell line Colo205; assay: Cytostatic activity on solid carcinoma cell line Colo205 (WST-1); conditions: Homo sapiens, COLO 205; 10 μmol/L, 72 hours, Colo205 cells; read-out: cytostatic rate Colo205 (%) (10 μmol/L)
Method in brief: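 Colo205 cells in RPMI 1640 with 10% FBS were pre-cultured 24 h, then exposed to compound at 10 μmol/L final (0.1% DMSO) for 72 h at 37° C. WST-1 was added for 2 h and A450 (ref 690 nm) read. Cytostatic rate = 100 − relative growth, with DMSO control set at 100% and medium blank at 0%.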

| SMILES | inhibition at 10 µM [1] | inhibition at 10 µM [2] | inhibition at 10 µM [3] | inhibition at 10 µM [4] |
| --- | --- | --- | --- | --- |
| O=C(c1ccc(/C=C/c2n[nH]c3ccccc23)cc1)N1CCC(C(=O)N2CCOCC2)CC1 [Compound 51, (E)-1-{4-[2-(1H-indazol-3-yl)vinyl]benzoyl}-4-(morpholinocarbonyl)piperidine] | 98% | 89% | 95% | 90% |
| CC(C)NC(=O)CN1CCN(C(=O)c2ccc(/C=C/c3n[nH]c4ccccc34)cc2)CC1 [Compound 135, (E)-1-{4-[2-(1H-indazol-3-yl)vinyl]benzoyl}-4-[2-oxo-2-(isopropylamino)ethyl]piperazine dihydrochloride] | 99% | 79% | 93% | 87% |
| CS(=O)(=O)Nc1cccc(/C=C/c2n[nH]c3ccccc23)c1 [Compound 27, (E)-N-{3-[2-(1H-indazol-3-yl)vinyl]phenyl}methanesulfonamide] | 94% | 77% | 55% | 80% |
| CS(=O)(=O)Nc1cc(/C=C/c2n[nH]c3ccccc23)ccc1OCCN1CCOCC1 [Compound 7, (E)-N-{5-[2-(1H-Indazol-3-yl)vinyl]-2-(2-morpholinoethoxy)phenyl}methanesulfonamide] | 97% | 97% | 98% | 89% |
| COCC(=O)N1CCN(C(=O)c2ccc(/C=C/c3n[nH]c4ccccc34)cc2)CC1 [Compound 65, (E)-4-methoxyacetyl-1-{4-[2-(1H-indazol-3-yl)vinyl]benzoyl}piperazine] | 97% | 86% | 85% | 88% |
